# Results as given in patent US20250213703A1, “HUMAN INTERLEUKIN 2-POLYETHYLENE GLYCOL CONJUGATE AND USE THEREOF” (Novocodex Biopharmaceuticals Co., Ltd., priority 2021, published 2025).
# Key:
# YT cells = experiment: STAT5 phosphorylation assay (YT cells); format: cell-based, human; settings: [EC50 YT/EC50 CTLL-2 of sample]/[EC50 YT/EC50 CTLL-2 of reference] × 100%
# Source text: In this method, two cell lines were adopted, wherein mouse CTLL-2 cells were a cell line containing IL-2Rαβγ, and human YT cells were a cell line containing IL-2Rβγ, and rhIL-2 activated the JAK-STAT signal pathway by binding with IL-2R on the cell surface. […] The lower the percentage change of EC50 ratio of YT cells/CTLL-2 cells was, the better the effect of promoting the immune function of the samples was, and on the contrary, the better the effect of inhibiting the immune function was.
# The specific process was as follows: the mouse CTLL-2 cells (purchased from American Type Culture Collection) and the human YT cells were cultured in their own media (CTLL-2 cell medium: RPMI 1640+10% FBS+400 IU/mL rhIL-2, 2 mM L-glutamine and 1 mM sodium pyruvate; and YT cell medium: RPMI 1640+10% FBS+1 mm Non-Essential Amino Acids Solution (purchased from Gibco, product catalog number 11140050)) to a sufficient amount at condition of 37° C. and 5% carbon dioxide, and starved for 4 hours before detection, and then the cell density was adjusted to be 1×10^6 cells/mL for later use.
# [1] = tested on: mouse colon cancer CT26.WT; experiment: Anti-tumor activity, CT26.WT homograft tumor model; format: in vivo; settings: Balb/c mice
# Protocol: (§1) A cell suspension of 2×10^5/0.1 mL/mouse CT26.WT (purchased from […], product catalog number CRL-2638) and a cell suspension of 4×10^5/0.1 mL/mouse H22 (purchased from CCTCC, product catalog number GD00091) were subcutaneously inoculated into right backs of the mice. […] During the experiment, weights and tumor volumes of the animals were measured 3 times every week, and administration modes and experimental results were shown in Table 4.
# mouse liver cancer H22 = experiment: Anti-tumor activity, H22 homograft tumor model; format: in vivo; settings: Balb/c mice
# Protocol: as §1
# [2] = tested on: CD8^+ T cells and CD4^+ Treg cells; experiment: Immune cell population in CT26.WT tumor tissue (flow cytometry); format: in vivo, mouse; settings: for CD8^+ T cells/CD4^+ Treg / Percentage of CD4^+ Treg in leucocytes / Percentage of CD8^+ T cells in leucocytes: 5th day, 2.0 mg/kg IV single dosage; for proportions of CD4^+ Treg cells compared with Quanqi rhIL2 / proportions of CD8^+ T cells compared with Quanqi rhIL2 / proportions of CD8^+ T/CD4^+ Treg compared with Quanqi rhIL2: in words
# Protocol: A cell suspension of 2×10^5/0.1 mL/mouse CT26.WT was subcutaneously inoculated into right backs of the mice. […] On the 5th day, tumor tissue samples of various groups were collected for flow cytometry detection of changes in cell populations of CD8^+ T cells and CD4^+ Treg cells.
# [3] = mouse, in vivo, iv, 1 mg/kg
# Protocol: The blood sample was placed at room temperature for 15 minutes and centrifuged at 6,800 g/min for 6 minutes to obtain serum. The plasma concentration in the serum was analyzed by the following method:
# (1) Coating: 50 μL of 1 μg/mL working solution of Anti-IL-2 antibody (purchased from abcam, product catalog number: ab9618) was added into each well in a high-adsorption 96-well plate, and incubated at 2° C. to 8° C. overnight. (2) Washing: the liquid in the well was discarded, and the well was washed with 1 xPBST (0.05% Tween-20) for 3 times, according to 300 μL/well. (3) Sealing: a casein sealing solution (purchased from Thermo, product catalog number 37528) was added according to 200 μL/well, and allowed to stand at room temperature for 90 minutes. (4) Washing: the liquid in the well was discarded, and the well was washed with 1 xPBST for 3 times, according to 300 μL/well. […] (6) Washing: the liquid in the well was discarded, and the well was washed with 1×PBST for 3 times, according to 300 μL/well. (7) Primary antibody: 50 μL of 0.25 μg/mL working solution of IL-2 Monoclonal Antibody (BG5) and Biotin (purchased from Invitrogen, product catalog number M600B) was added into each well, and allowed to stand at room temperature for 60 minutes. (8) Washing: the liquid in the well was discarded, and the well was washed with 1×PBST for 3 times, according to 300 μL/well. (9) Secondary antibody: Pierce™ High Sensitivity Streptavidin-HRP (purchased from Thermo, product catalog number 21130) was diluted for 4,000 times with a casein sealing solution, and 50 μL was added into each well, and allowed to stand at room temperature for 60 minutes. (10) Washing: the liquid in the well was discarded, and the well was washed with 1×PBST for 4 times, according to 300 μL/well. […] (12) Stopping and reading: 2 M sulfuric acid stop solution was added 25 minutes later, and light absorption values at 450 nm and 650 nm were read on a microplate reader (purchased from Perkin Elmer, model EnSight).
# [4] = molecular target: IL-2Rαβγ on mouse CTLL-2 cells (mouse (CTLL-2 cells)) (UniProt P01590); experiment: cell-based or functional assay
# IL-2Rαβγ = molecular target: T1, IL-2Rαβγ (Homo sapiens, UniProt P01589+P14784+P31785); settings: high-affinity complex IL-2Rαβγ; cited from earlier work
# T1 sequence (P01589 22-272): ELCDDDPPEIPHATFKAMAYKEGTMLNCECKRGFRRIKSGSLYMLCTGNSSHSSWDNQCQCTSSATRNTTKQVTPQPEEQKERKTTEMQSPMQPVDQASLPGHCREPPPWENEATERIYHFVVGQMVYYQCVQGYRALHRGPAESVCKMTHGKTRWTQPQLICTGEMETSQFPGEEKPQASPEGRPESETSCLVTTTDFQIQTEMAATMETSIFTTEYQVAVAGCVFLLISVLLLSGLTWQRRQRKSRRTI
# T1 sequence (P14784 27-551): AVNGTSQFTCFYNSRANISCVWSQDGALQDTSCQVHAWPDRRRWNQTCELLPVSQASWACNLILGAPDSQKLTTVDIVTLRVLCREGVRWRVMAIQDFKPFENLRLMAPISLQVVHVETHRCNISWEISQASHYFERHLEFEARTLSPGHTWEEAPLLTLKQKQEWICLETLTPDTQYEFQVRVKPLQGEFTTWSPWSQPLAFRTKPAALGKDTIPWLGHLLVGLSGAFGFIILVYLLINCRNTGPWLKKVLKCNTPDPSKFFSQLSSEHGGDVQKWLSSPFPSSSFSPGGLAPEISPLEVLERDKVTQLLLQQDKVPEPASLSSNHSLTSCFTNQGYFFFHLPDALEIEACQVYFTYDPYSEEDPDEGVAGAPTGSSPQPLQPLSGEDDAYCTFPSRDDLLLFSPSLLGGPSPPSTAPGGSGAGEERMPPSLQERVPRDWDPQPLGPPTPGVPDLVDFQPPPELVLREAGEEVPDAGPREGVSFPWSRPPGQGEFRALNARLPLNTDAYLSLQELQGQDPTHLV
# T1 sequence (P31785 23-369): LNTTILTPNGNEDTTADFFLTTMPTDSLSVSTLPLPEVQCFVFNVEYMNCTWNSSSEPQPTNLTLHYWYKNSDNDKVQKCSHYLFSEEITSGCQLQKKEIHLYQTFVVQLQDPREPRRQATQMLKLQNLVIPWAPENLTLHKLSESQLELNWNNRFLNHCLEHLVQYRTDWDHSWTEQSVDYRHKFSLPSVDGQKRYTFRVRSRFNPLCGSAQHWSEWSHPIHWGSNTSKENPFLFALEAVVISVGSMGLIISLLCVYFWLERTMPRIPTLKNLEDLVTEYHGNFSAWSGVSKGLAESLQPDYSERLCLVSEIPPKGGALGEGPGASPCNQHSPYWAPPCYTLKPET
# IL-2Rβγ = molecular target: T2, IL-2Rβγ (Homo sapiens, UniProt P14784+P31785); settings: moderate-affinity complex IL-2Rβγ; cited from earlier work
# T2 sequence (P14784 27-551): T1 sequence (P14784 27-551)
# T2 sequence (P31785 23-369): T1 sequence (P31785 23-369)
# IL-2Rα = molecular target: T3, IL-2Rα (Homo sapiens, UniProt P01589); settings: low-affinity receptor IL-2Rα subunit; cited from earlier work
# T3 sequence (P01589 22-272): T1 sequence (P01589 22-272)
# [5] = high dosage 5.0 mg/kg IV Q5D × 3
# [6] = low dosage 0.7 mg/kg IV Q5D × 3
# Sequence of IL-2Rαβγ on mouse CTLL-2 cells (mouse (CTLL-2 cells)) (P01590 22-268, chain 1 of 3): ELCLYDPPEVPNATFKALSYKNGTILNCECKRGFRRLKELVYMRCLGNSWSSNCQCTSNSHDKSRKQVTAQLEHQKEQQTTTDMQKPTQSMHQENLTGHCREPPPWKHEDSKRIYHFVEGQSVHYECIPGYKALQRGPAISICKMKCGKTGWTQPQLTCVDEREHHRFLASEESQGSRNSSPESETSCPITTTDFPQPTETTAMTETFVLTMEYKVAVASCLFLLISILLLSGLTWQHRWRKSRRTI
# Sequence of IL-2Rαβγ on mouse CTLL-2 cells (mouse (CTLL-2 cells)) (P16297 27-539, chain 2 of 3, further chain): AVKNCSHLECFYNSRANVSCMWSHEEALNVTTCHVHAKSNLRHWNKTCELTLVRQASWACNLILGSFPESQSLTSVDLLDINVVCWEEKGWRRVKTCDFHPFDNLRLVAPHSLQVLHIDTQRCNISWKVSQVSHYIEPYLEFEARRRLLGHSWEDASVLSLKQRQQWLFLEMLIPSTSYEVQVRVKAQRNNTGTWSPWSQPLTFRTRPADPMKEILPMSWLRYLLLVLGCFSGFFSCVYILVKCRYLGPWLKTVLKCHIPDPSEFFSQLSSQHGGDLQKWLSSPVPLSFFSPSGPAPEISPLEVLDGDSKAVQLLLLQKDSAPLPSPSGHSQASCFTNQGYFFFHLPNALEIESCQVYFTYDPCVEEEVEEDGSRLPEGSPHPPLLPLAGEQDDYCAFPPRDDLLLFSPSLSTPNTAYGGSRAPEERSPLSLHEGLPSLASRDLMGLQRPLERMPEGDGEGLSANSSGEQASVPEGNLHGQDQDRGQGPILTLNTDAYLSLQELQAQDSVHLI
# Sequence of IL-2Rαβγ on mouse CTLL-2 cells (mouse (CTLL-2 cells)) (P34902 23-369, chain 3 of 3, further chain): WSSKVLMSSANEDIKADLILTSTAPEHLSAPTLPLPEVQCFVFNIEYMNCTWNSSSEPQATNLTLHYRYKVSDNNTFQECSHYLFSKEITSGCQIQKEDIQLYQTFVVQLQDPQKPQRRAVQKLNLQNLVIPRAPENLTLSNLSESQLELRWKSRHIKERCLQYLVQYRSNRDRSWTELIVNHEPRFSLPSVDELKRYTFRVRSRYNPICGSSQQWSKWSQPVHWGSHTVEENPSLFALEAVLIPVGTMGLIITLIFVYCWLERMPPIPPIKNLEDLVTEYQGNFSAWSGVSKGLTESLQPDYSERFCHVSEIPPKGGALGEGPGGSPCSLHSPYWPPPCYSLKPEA
substance,measurement,setting,value
"30 KD PEG-rhIL2-Y45: rhIL-2 with unnatural amino acid NOPK at Y45 site, coupled via oxime bond with 30 KD aminoxy PEG",Percentage change of EC50 ratio of YT/CTLL-2 cells of 30 KD PEG-rhIL2 sample,YT cells,6%
same,Average value ± standard error of tumor weight,[1]; [5],0.22 g
same,TGITW,[1]; [5],92%
same,Average value ± standard error of tumor weight,[1]; [6],0.93 g
same,TGITW,[1]; [6],66%
same,Average value ± standard error of tumor weight,mouse liver cancer H22; [5],0.4 g
same,TGITW,mouse liver cancer H22; [5],79%
same,Average value ± standard error of tumor weight,mouse liver cancer H22; [6],0.82 g
same,TGITW,mouse liver cancer H22; [6],57%
same,CD8^+ T cells/CD4^+ Treg,[2],23.2
same,Percentage of CD4^+ Treg in leucocytes,[2],1.3%
same,Percentage of CD8^+ T cells in leucocytes,[2],30.1%
same,proportions of CD4^+ Treg cells compared with Quanqi rhIL2,[2],significantly decreased
same,proportions of CD8^+ T cells compared with Quanqi rhIL2,[2],significantly increased
same,proportions of CD8^+ T/CD4^+ Treg compared with Quanqi rhIL2,[2],significantly increased
same,AUC0-t,[3],168.141 µg·h/mL
same,MRT0-t,[3],9.42 h
same,Vz,[3],0.126 L/kg
"reference rhIL-2 (purchased from Beijing Solarbio Science & Technology Co., Ltd., catalog number: P00020) (from UniProt P60568 21-153) (ligand)",STAT5 phosphorylation assay (CTLL-2 cells) EC50,[4],0.12 ng/mL
"30 KD PEG-rhIL2-E61: rhIL-2 with unnatural amino acid NOPK at E61 site, coupled via oxime bond with 30 KD aminoxy PEG",Percentage change of EC50 ratio of YT/CTLL-2 cells of 30 KD PEG-rhIL2 sample,YT cells,89%
"30 KD PEG-rhIL2-K35: rhIL-2 with unnatural amino acid NOPK at K35 site, coupled via oxime bond with 30 KD aminoxy PEG",Percentage change of EC50 ratio of YT/CTLL-2 cells of 30 KD PEG-rhIL2 sample,YT cells,53%
"30 KD PEG-rhIL2-T41: rhIL-2 with unnatural amino acid NOPK at T41 site, coupled via oxime bond with 30 KD aminoxy PEG",Percentage change of EC50 ratio of YT/CTLL-2 cells of 30 KD PEG-rhIL2 sample,YT cells,43%
same,Average value ± standard error of tumor weight,[1]; [5],0.32 g
same,TGITW,[1]; [5],88%
same,Average value ± standard error of tumor weight,[1]; [6],0.64 g
same,TGITW,[1]; [6],77%
same,Average value ± standard error of tumor weight,mouse liver cancer H22; [5],0.38 g
same,TGITW,mouse liver cancer H22; [5],80%
same,Average value ± standard error of tumor weight,mouse liver cancer H22; [6],0.69 g
same,TGITW,mouse liver cancer H22; [6],63%
same,CD8^+ T cells/CD4^+ Treg,[2],27.7
same,Percentage of CD4^+ Treg in leucocytes,[2],1.3%
same,Percentage of CD8^+ T cells in leucocytes,[2],36.0%
same,proportions of CD4^+ Treg cells compared with Quanqi rhIL2,[2],significantly decreased
same,proportions of CD8^+ T cells compared with Quanqi rhIL2,[2],significantly increased
same,proportions of CD8^+ T/CD4^+ Treg compared with Quanqi rhIL2,[2],significantly increased
"IL-2: mature human IL-2 with 133 amino acids, background description",Kd,IL-2Rαβγ,0.01 nM
same,Kd,IL-2Rβγ,1 nM
same,Kd,IL-2Rα,10 nM
"30 KD PEG-rhIL2-P65: rhIL-2 with unnatural amino acid NOPK at P65 site, coupled via oxime bond with 30 KD aminoxy PEG",Percentage change of EC50 ratio of YT/CTLL-2 cells of 30 KD PEG-rhIL2 sample,YT cells,91%
